In brackets after ≈: the same amount, converted by molar mass.
How the values were obtained:
[1] = tested on: S. aureus RN450; assay: In vivo anti-bacterial activity, S. aureus model; conditions: Staphylococcus aureus, sc; mice, lethal IP S. aureus RN450, single subcutaneous dose 5 mg/kg, 24 hours; read-out: Percent Survival
Procedure: Groups of five mice were injected intraperitoneally with a lethal dose of S. aureus RN450 in a medium of mucin. Mice were evaluated at 24 hours to determine survival. […] In some instances, a dose response study was performed with the compound such that a PD50 (a dose of compound that protects 50% of the animals) could be calculated.

[2] = tested on: S. aureus RN450; assay: Antibacterial MIC, CLSI broth microdilution; assay type: cell-based; conditions: Staphylococcus aureus, RN450; 35° C., 18-24 hours
Procedure: (§1) Grain (−) and gram (+) antibacterial minimum inhibitory concentration (MIC) values (μg/mL) were obtained using CLSI methodology for anti-bacterial susceptibility testing. On each day of testing, serial dilutions of compounds were prepared in microdilution plates using a Tecan robotic workstation. Mueller Hinton broth cultures of representative sensitive and resistant gram negative strains were grown or adjusted to match the turbidity of a 0.5 McFarland standard. 1:200 dilutions were made in an appropriate broth (cation supplemented Mueller Hinton broth) to allow a final inoculum of 1×10^5 cfu. Plates were incubated at 35° C. in ambient air for 18-24 hours, were read spectrophotometrically and checked manually for evidence of bacterial growth. The lowest dilution of compound that inhibited growth was recorded as the MIC. Lysed horse blood was used to supplement broth for testing S. pneumoniae. The MIC's for each compound were assessed against S. aureus, S. pneumoniae, P. acnes, E. coli and B. theta.

[3] = tested on: P. acnes ATCC 11827; assay: Antibacterial MIC, CLSI broth microdilution; assay type: cell-based; conditions: Cutibacterium acnes, ATCC11827; 35° C., 18-24 hours
Procedure: as §1

[4] = tested on: E. coli ATCC 25922; assay: Antibacterial MIC, CLSI broth microdilution; assay type: cell-based; conditions: Escherichia coli, ATCC25922; 35° C., 18-24 hours
Procedure: as §1

[5] = tested on: S. pneumoniae 157E - Strep; assay: Antibacterial MIC, CLSI broth microdilution; assay type: cell-based; conditions: Streptococcus pneumoniae, 157ESTREP; 35° C., 18-24 hours; lysed horse blood
Procedure: as §1

[6] = tested on: B. thetaiotaomicron ATCC 29741; assay: Antibacterial MIC, CLSI broth microdilution; assay type: cell-based; conditions: Bacteroides thetaiotaomicron, ATCC29741; 35° C., 18-24 hours; read-out: MIC B. thetaiotaomicron ATCC 29741
Procedure: as §1

[7] = tested on: E. coli MG 1655; assay: Antibacterial MIC, CLSI broth microdilution; assay type: cell-based; conditions: Escherichia coli, MG1655; 35° C., 18-24 hours
Procedure: as §1

[8] = tested on: P. acnes ATCC 6919; assay: Antibacterial MIC, CLSI broth microdilution; assay type: cell-based; conditions: Cutibacterium acnes, ATCC6919; 35° C., 18-24 hours
Procedure: as §1

[9] = in vitro; assay type: cell-based
Procedure: Mammalian cell cytotoxicity was assessed to evaluate potential in vivo risks associated with the tetracycline compounds of the invention. A soluble, non-toxic redox dye (“Resazurin”; Alamar Blue) was used to assess a tetracycline compound's effect on cellular metabolism. At the onset of the experiment, cultures of mammalian COS-1 or CHO cells were washed, trypsinized, and harvested. […] On the next day, serial dilutions of test drug were prepared under sterile conditions and transferred to cell plates. Plates were then incubated under the above conditions for 24 hours. Following the incubation period, the media/drug was aspirated, and 50 μL of resazurin was added. Plates were then incubated under the above conditions for 2 hours and then in the dark at room temperature for an additional 30 minutes. Fluorescence measurements were taken (excitation 535 nm, emission 590 nm) and toxic effects in treated versus control cells were compared based on the degree of fluorescence in each well.

| SMILES | MIC [2] [µg/mL] | MIC [3] [µg/mL] | MIC [4] [µg/mL] | MIC [5] [µg/mL] | MIC [6] [µg/mL] | MIC [7] [µg/mL] | MIC [8] [µg/mL] | IC50 at 24 h ([9]; African green monkey) [µg/mL] | IC50 at 24 h ([9]; Chinese hamster) [µg/mL] | responders at 5 mg/kg [1] [%] |
| --- | --- | --- | --- | --- | --- | --- | --- | --- | --- | --- |
| CCONCc1ccc(O)c2c1C[C@H]1C[C@H]3[C@H](N(C)C)C(O)=C(C(N)=O)C(=O)[C@@]3(O)C(O)=C1C2=O [AA, (4S,4aS,5aR,12aS)-4-Dimethylamino-7-(ethoxyamino-methyl)-3,10,12,12a-tetrahydroxy-1,11-dioxo-1,4,4a,5,5a,6,11,12a-octahydro-naphthacene-2-carboxylic acid amide] | < 4 | < 4 | 4 to 8 (≈ 8.2 to 16.4 µM) | < 4 | 4 to 8 (≈ 8.2 to 16.4 µM) | 4 to 8 (≈ 8.2 to 16.4 µM) | < 4 | > 75 | > 75 | 100 |
| CN(C)[C@H]1C(O)=C(C(N)=O)C(=O)[C@@]2(O)C(O)=C3C(=O)c4cccc(-c5ncccn5)c4C[C@H]3C[C@@H]12 [H] | < 4 | 4 to 8 (≈ 8.39 to 16.8 µM) | > 8 | < 4 | > 8 | > 8 | 4 to 8 (≈ 8.39 to 16.8 µM) | > 75 | > 75 |  |
| CCO/N=C(\C)c1cc(N)c(O)c2c1C[C@H]1C[C@H]3[C@H](N(C)C)C(O)=C(C(N)=O)C(=O)[C@@]3(O)C(O)=C1C2=O [M] | < 4 | < 4 | < 4 | < 4 | 4 to 8 (≈ 7.77 to 15.5 µM) | 4 to 8 (≈ 7.77 to 15.5 µM) | < 4 | > 75 | > 75 |  |
| CCO/N=C(\C)c1cc(CNCC(C)(C)C)c(O)c2c1C[C@H]1C[C@H]3[C@H](N(C)C)C(O)=C(C(N)=O)C(=O)[C@@]3(O)C(O)=C1C2=O [N] | < 4 | < 4 | < 4 | < 4 | < 4 | 4 to 8 (≈ 6.68 to 13.4 µM) | < 4 | > 75 | > 75 |  |
| CN(C)CC/C(=N\OC(C)(C)C)c1ccc(O)c2c1C[C@H]1C[C@H]3[C@H](N(C)C)C(O)=C(C(N)=O)C(=O)[C@@]3(O)C(O)=C1C2=O [O] | < 4 | < 4 | < 4 | < 4 | < 4 | < 4 | < 4 | 35 to 75 (≈ 59.9 to 128 µM) | < 35 |  |

Second part, led by results:

| MIC [2] [µg/mL] | MIC [3] [µg/mL] | MIC [4] [µg/mL] | MIC [5] [µg/mL] | MIC [6] [µg/mL] | MIC [7] [µg/mL] | MIC [8] [µg/mL] | IC50 at 24 h ([9]; African green monkey) [µg/mL] | IC50 at 24 h ([9]; Chinese hamster) [µg/mL] | SMILES | responders at 5 mg/kg [1] [%] |
| --- | --- | --- | --- | --- | --- | --- | --- | --- | --- | --- |
| < 4 | < 4 | < 4 | < 4 | < 4 | < 4 | < 4 | < 35 | < 35 | CN(C)[C@@H]1C(O)=C(C(N)=O)C(=O)[C@@]2(O)C(O)=C3C(=O)c4c(O)ccc(-c5ncco5)c4C[C@H]3C[C@@H]12 [J] |  |
| < 4 | < 4 | < 4 | < 4 | < 4 | < 4 | < 4 | < 35 | < 35 | CN(C)[C@@H]1C(O)=C(C(N)=O)C(=O)[C@@]2(O)C(O)=C3C(=O)c4c(O)ccc(-c5cnoc5)c4C[C@H]3C[C@@H]12 [K] |  |
| < 4 | < 4 | < 4 | < 4 | < 4 | < 4 | < 4 | < 35 | < 35 | CN(C)[C@@H]1C(O)=C(C(N)=O)C(=O)[C@@]2(O)C(O)=C3C(=O)c4c(O)ccc(-c5nccs5)c4C[C@H]3C[C@@H]12 [L] |  |
